Experimental data: the NIST ThermoML archive (doi:10.1016/j.tca.2018.02.007)
± gives the expanded uncertainty stated by the source.

What was measured:
[1] = for thermal conductivity: 101.33 kPa, T-histrory method; for Triple point temperature: DSC
[2] = Molar enthalpy of transition or fusion; details: DSC

**Q.** Which results are given for `OCC(CO)(CO)CO` [2,2-bis(hydroxymethyl)-1,3-propanediol]?
**A.** thermal conductivity ([1]; 340.65 K, Crystal 2): 0.112 ± 0.007 W/m/K; thermal conductivity ([1]; 395.65 K, Crystal 2): 0.108 ± 0.007 W/m/K; thermal conductivity ([1]; 450.65 K, Crystal 2): 0.104 ± 0.006 W/m/K; Triple point temperature ([1]; Crystal 1): 531.25 ± 0.8 K; Triple point temperature ([1]; Crystal 2): 454.55 ± 0.8 K; Molar enthalpy of transition or fusion ([2]; Crystal 1): 5.85 ± 0.27 kJ/mol; Molar enthalpy of transition or fusion ([2]; Crystal 2): 35.9 ± 1.6 kJ/mol
